The text below walks through data of patent publication US20020045780A1, “Biologically active spermidine analogues, pharmaceutical compositions and methods of treatment” (priority 1997, published 2002).

Molecules are shown by their SMILES. “And” between values parts separate entries of the source, which are not always exact repeats. Equal entries are not always repeated. “Also recorded” adds a separate entry of the source. Structures can show the parent of a compound that is named as a salt. Where two headings read alike, the source gives them in different places.

In series [1] the test system is L1210 cells. The conditions noted are these: cited from earlier work.
Series [2] addresses polyamine transport apparatus. The conditions noted are these: inhibition of spermidine transport, L1210; read-out: Ki, corresponding tetraamine (in parentheses); cited from earlier work.
Series [3] relates to S-adenosylmethionine decarboxylase (AdoMetDC). The following applies: L1210, 1 μM at 6 hours; cited from earlier work.
Series [4] has as its system spermidine/spermine acetyltransferase (SSAT). The conditions noted are these: L1210, 2 μM at 48 hours (tetraamine analogues); cited from earlier work.
Series [5] deals with L1210 cells. As to the kind of experiment: L1210 growth inhibition, IC50 determination. The series is classed as cell-based, murine. On the procedure: Murine L1210 leukemia cells (ATCC CCL 219) were maintained in logarithmic growth in RPMI-1640 medium containing 10% fetal calf serum or a semi-synthetic equivalent, NuSerum, 2% HEPES-MOPS buffer and 1 mM aminoguanidine.
In series [6] the test system is polyamine transport apparatus. The series is described as follows: Competitive uptake determination: inhibition of [3H]spermidine transport into L1210 cells. The series is classed as cell-based, murine. The following applies: analogue inhibition of spermidine transport. A digest of the protocol: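 Analogues competed with [3H]spermidine for uptake into L1210 cells. Values are Ki, derived from Lineweaver–Burk analysis as competitive inhibition with respect to spermidine.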

Series [7] has as its system L1210 cells. The series is described as follows: Polyamine pool analysis in L1210 cells. The following applies: 48 hours; for activity at 3 µM / activity at 15 µM / activity at 75 µM: Mus musculus, L1210, % of untreated control; for Analogue: intracellular amount. The series is classed as cell-based, murine. A digest of the protocol:
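Cells were exposed to each analogue for 48 h at two concentrations. Washed pellets were extracted with 0.6 N HClO4 (1 ml/10^7 cells), and polyamines were quantified by HPLC of dansyl derivatives.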

Series [8] relates to ornithine decarboxylase (ODC). The series is described as follows: ODC activity in treated L1210 cells. The series is classed as cell-based, murine. The following applies: L1210, 1 μM at 4 hours. A digest of the protocol:
(§1)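 L1210 cells treated with triamines; ODC activity measured at 4 h and AdoMetDC at 6 h as ^14CO2 released from [^14C]-carboxyl-labeled L-ornithine (ODC) or S-adenosyl-L-methionine (AdoMetDC). Untreated cells served as controls and DEHSPM-treated cells as positive controls.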

The subject of series [9] is S-adenosylmethionine decarboxylase (AdoMetDC). As to the kind of experiment: AdoMetDC activity in treated L1210 cells. It is filed as cell-based, murine. The conditions noted are these: L1210, 1 μM at 6 hours. In a few lines: as §1
For series [10], the system named is spermidine/spermine acetyltransferase (SSAT). As to the kind of experiment: SSAT activity in treated L1210 cells. The following applies: L1210, 10 μM at 48 hours (triamine analogues). The series is classed as cell-based, murine. From the text:
Spermidine/spermine N^1-acetyltransferase activity was based on quantitation of [^14C]-N^1-acetylspermidine formed by acetylation of SPD with [^14C] acetyl coenzyme A according to the method of Libby et al [Biochem. Pharmacol., Vol. 38, supra]. Cells treated with DENSPM were positive controls.

The subject of series [11] is L1210 cells. The series is described as follows: Metabolic transformation of polyamine analogues by L1210 cells. It is filed as in vitro ADME, murine. The conditions noted are these: for Parent drug as % of total drug in the cell / Parent drug in L1210 cells / N-Monodealkylation (result in words): 48 hours; for N-Monodealkylation (result in words): Trihydrochloride; for N-dealkylation (result in words): L1210 cells, data not shown, concentration not given. On the procedure: The cells were washed twice with cold RPMI-1640, and the pellet was treated with 0.6 N HClO4 (1 ml/10^7 cells). Polyamine contents of the perchloric acid extracts were quantitated by HPLC of the DANSYL derivatives [Bergeron et al, J. Med. Chem., Vol. 37, supra].

A short description of series [12]: Acute toxicity in mice (single i.p. dose). The series is classed as in vivo. The conditions noted are these: female, CD-1, mouse, in vivo, ip, mice, single dose i.p., scored two hours after dose, read-out: Acute LD50. Here is the method:
In the current study, the acute toxicity of six analogues and the chronic toxicity of two triamines were measured (Table 7). The value of all polyamine LD50s are shown in both mg/kg and mmol/kg for comparison. […] The animals were scored two hours after administration of the drug. It is clear that the acute LD50s for triamine analogues are approximately twice the acute LD50s for the corresponding tetraamine analogues.
(§2) Acute and chronic toxicities were assessed in 10-12 week old CD-1 female mice from Harlan Sprague-Dawley. For acute toxicities, the polyamine analogues were administered in a single i.p. injection to groups of five or six animals at each dose. The animals were scored two hours after administration of the dose. All survivors were further observed for 10 days to assess late onset of toxicity from the single acute dose. In the chronic toxicity regimen, mice were administered polyamine analogue in three i.p. doses per day (t.i.d.) for six days, for a total of eighteen doses per animal. Appetite, weight and overall appearance were monitored daily. […] At least three test groups of 5-6 animals each, representing three different dose levels, were evaluated for each analogue tested. These dose levels were chosen so that at least two groups presented with lethalities, one with a high fraction of lethalities (>0.50, but <1.00).

In series [13] the test system is mice. It is filed as in vivo. Here is the method:
In the chronic toxicity regimen, mice were administered the polyamine analogue in three doses per day (t.i.d.) for six days for a total of eighteen injections per animal and observed for 10 days after the final dose for lethalities. […] A similar difference is also observed in the chronic toxicity of DE(3,4).
as §2

Series [14] deals with L1210 cells. The conditions noted are these: 48 hours, cited from earlier work; for Analogue, corresponding tetraamine (in parentheses): intracellular amount.
Where [15] appears, read: L1210, 48 hour exposure, read-out: IC50 48 hour, corresponding tetraamine (in parentheses).
[16] abbreviates: L1210, 96 hour exposure, read-out: IC50 96 hour, corresponding tetraamine (in parentheses).
Where [17] appears, read: Mus musculus, L1210, 48 h, L1210, 48 hour exposure, read-out: IC50 48 hour.
[18] abbreviates: Mus musculus, L1210, 96 h, L1210, 96 hour exposure, read-out: IC50 96 hour.

Broadly, the IC50 is the concentration needed to halve the response being measured. What is called Ki is the equilibrium dissociation constant of an inhibitor or competing ligand from its target. Consider `CCNCCCNCCCNCCCN` [MENSPM], for which the 50% inhibitory concentration (IC50) is above 100000 nM in series [1] (setting [15]) and 2500 nM in series [1] (setting [16]). In addition, in [2], the inhibition constant (Ki) is 7.7 µM. Moreover, the “AdoMetDC activity, corresponding tetraamine (in parentheses)” value (“AdoMetDC activity … (in parentheses)” for short) in [3] is given as 33% of untreated control. For the same compound, the “SSAT activity, corresponding tetraamine (in parentheses)” value (“SSAT activity, corresponding tetraamine” for short) in [4] was 410% of untreated control.
One may read the LD50 as the dose at which mortality reaches 50%. Take `CCNCCCCCNCCCCNCC` [DE(4,5), 3,8,14-Triazahexadecane Trihydrochloride]: the IC50 in series [5] (L1210, 48 hour exposure, Trihydrochloride, read-out: IC50 48 hour) was in the range of 3000 to 6000 nM; in series [5] (setting [17]), 2000 to 6000 nM; in series [5] (setting [18]) it was 190 to 200 nM. Besides, the Ki in series [6] was found to be 64 µM. In addition, the activity at 3 µM in series [7] (3 μM, read-out: Put) is 0%; in series [7] (3 μM, read-out: Spd), 47%; in [7] (3 μM, read-out: Spm), 99%. Moreover, the activity at 15 µM in series [7] (15 μM, read-out: Put) was found to be 0%; in [7] (15 μM, read-out: Spd), 18%; in series [7] (15 μM, read-out: Spm), 98%. Also, the Analogue in series [7] (3 μM) is on record as 1.20 nmol/10^6 cells; in [7] (15 μM) it was 3.40 nmol/10^6 cells. Besides, the “ODC activity, percent of untreated control” value in series [8] is reported as 100% of untreated control. In series [9], the “AdoMetDC activity, percent of untreated control” value is given as 70% of untreated control. The “SSAT activity, percent of untreated control” value in series [10] (Trihydrochloride) was 120% of untreated control and 120 (120) percent of untreated control. The “Parent drug as % of total drug in the cell” value in series [11] (100 μM analogue) is reported as 100%. Also, the “Parent drug in L1210 cells” value in [11] (100 μM analogue) is listed as 4215 pmols/10^6. In [11] (100 μM analogue), the “N-Monodealkylation (result in words)” value was “do not show significant N-deethylation; also recorded: no N-deethylation”. Moreover, the median lethal dose (LD50) at 2 h in series [12] (hydrochloride salts) came to 555 mg/kg; in series [12], 1640 µmol/kg. For the same compound, the “Chronic LD50 (triamines)” value in [13] (mice, i.p. t.i.d. × 6 days, hydrochloride salts) amounted to 375 mg/kg-day; in [13] (mouse, in vivo, ip), 1.11 mmol/kg/day. Besides, the “Chronic toxicity in mice relative to the related tetraamine” value in [13] (ratio of chronic LD50 values, Table 7, Trihydrochloride) is on record as “about eight-fold less toxic than the DE(4,5,4); also recorded: greater than ten-fold less toxic than DE(5,4,5)”.
On to `CNCCCNCCCCNCCCNC` [DMSPM], for which, in series [11], the “N-dealkylation (result in words)” value is “no evidence of N-dealkylation”. Moreover, the figures for the half-maximal inhibitory concentration (IC50) in series [1] (setting [15]) and in [1] (setting [16]) were above 100000 nM and 750 nM, respectively. For the same compound, in series [2], the inhibitory constant (Ki) was 1.1 µM. For the same compound, the entries for the “Analogue, corresponding tetraamine (in parentheses)” value (from here on “Analogue, corresponding tetraamine”) in series [14] (100 μM) and in series [14] (500 μM) were “(1.26) nmol/10^6 cells” and “(1.24) nmol/10^6 cells”, respectively. For the same compound, the “AdoMetDC activity … (in parentheses)” value in [3] was 40% of untreated control. The “SSAT activity, corresponding tetraamine” value in series [4] was 300% of untreated control.
For the compound `CNCCCNCCCNCCCNC` [DMNSPM], the “N-dealkylation (result in words)” value in series [11] was “no evidence of N-dealkylation”. The IC50 in series [1] (setting [15]) was above 100000 nM. For the same compound, in [1] (setting [16]), the IC50 was 2500 nM. The Ki in series [2] is 5.6 µM. In series [14] (% of untreated control, 500 μM), the “Put, corresponding tetraamine (in parentheses)” value was “(0) %”; the “Spd, corresponding tetraamine (in parentheses)” value is on record as “(3) %”; the “Spm, corresponding tetraamine (in parentheses)” value is recorded as “(27) %”. In addition, the “Analogue, corresponding tetraamine” value in [14] (100 μM) is on record as “(2.14) nmol/10^6 cells”. The “Analogue, corresponding tetraamine” value in [14] (500 μM) is reported as “(1.84) nmol/10^6 cells”. The “AdoMetDC activity … (in parentheses)” value in series [3] is reported as 49% of untreated control. Besides, the “SSAT activity, corresponding tetraamine” value in series [4] is 200% of untreated control.
With `CCNCCCCCNCCCCCNCC` [DE(5,5), 3,9,15-Triazaheptadecane Trihydrochloride], the 50% inhibitory concentration (IC50) in series [5] (setting [17]) lay in the range of 10000 to 12000 nM; in series [5] (setting [18]), 650 to 700 nM. Besides, the inhibition constant Ki in series [6] stood at 174 µM. The activity at 15 µM was found to be 0% in series [7] (15 μM, read-out: Put); 55% in series [7] (15 μM, read-out: Spd); 97% in series [7] (15 μM, read-out: Spm). For the same compound, the activity at 75 µM in series [7] (75 μM, read-out: Put) was 0%; in series [7] (75 μM, read-out: Spd), 23%; in series [7] (75 μM, read-out: Spm), 73%. For the same compound, the figures for the Analogue in series [7] (15 μM) and in [7] (75 μM) were 1.09 nmol/10^6 cells and 1.59 nmol/10^6 cells, respectively. For the same compound, the “ODC activity, percent of untreated control” value in series [8] was 100% of untreated control. Besides, the “AdoMetDC activity, percent of untreated control” value in series [9] is 109% of untreated control. Besides, the “SSAT activity, percent of untreated control” value in series [10] is given as 90% of untreated control. Moreover, in series [11] (75 μM analogue), the “Parent drug as % of total drug in the cell” value stood at 100%. Further, the “Parent drug in L1210 cells” value in [11] (75 μM analogue) was determined as 1585 pmols/10^6. The “N-Monodealkylation (result in words)” value in [11] (75 μM analogue) is “do not show significant N-deethylation”; in series [11] (75 μM analogue, listed as DE-[6,6]) it was “no N-deethylation”. For the same compound, the median lethal dose (LD50) at 2 h in series [12] (hydrochloride salts) worked out at 500 mg/kg; in [12], 1420 µmol/kg.
